In patent publication US20260364080A1, “PYRAZOLO-PYRIMIDINONE COMPOUNDS FOR USE IN METHODS OF INHIBITING WEE1 A KINASE” (Acrivon Therapeutics, Inc., priority 2023, published 2026):

Assays:
[1] = target: T1, Wee1A kinase (CDK1 Tyr15 phosphorylation in ACHN renal cell carcinoma cells) (Homo sapiens, UniProt P30291); experiment: High-content imaging of pCdk1 Y15, Wee1A kinase target engagement in ACHN cells; assay type: cell-based; details: 4 h treatment, nuclear positivity for pCdk1 Y15 vs DMSO control, read-out: CDK1 Tyr15 Phosphorylation EC50
T1 construct: pCDK1 Tyr15 immunofluorescence read-out
T1 sequence (P30291 whole entry): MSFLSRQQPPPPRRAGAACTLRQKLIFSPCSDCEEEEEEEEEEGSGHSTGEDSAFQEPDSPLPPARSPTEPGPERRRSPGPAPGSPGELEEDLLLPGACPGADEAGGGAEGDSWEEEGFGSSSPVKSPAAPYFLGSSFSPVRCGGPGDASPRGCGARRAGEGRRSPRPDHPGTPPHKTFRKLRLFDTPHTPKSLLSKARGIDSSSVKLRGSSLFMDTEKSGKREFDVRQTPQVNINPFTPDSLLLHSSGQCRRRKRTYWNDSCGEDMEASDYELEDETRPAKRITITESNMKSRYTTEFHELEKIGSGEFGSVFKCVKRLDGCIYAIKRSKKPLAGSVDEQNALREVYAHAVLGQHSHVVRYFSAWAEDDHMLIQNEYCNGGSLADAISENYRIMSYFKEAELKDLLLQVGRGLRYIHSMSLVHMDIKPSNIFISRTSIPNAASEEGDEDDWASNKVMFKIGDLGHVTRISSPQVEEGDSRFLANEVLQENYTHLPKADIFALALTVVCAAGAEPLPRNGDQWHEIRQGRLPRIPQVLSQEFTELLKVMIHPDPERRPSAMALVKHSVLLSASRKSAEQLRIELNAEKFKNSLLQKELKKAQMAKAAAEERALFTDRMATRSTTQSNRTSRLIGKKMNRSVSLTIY
How it was run: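 EC50 values come from the per-well fraction of cells with nuclear pCdk1 Y15 staining, normalised to DMSO control, by automated immunofluorescence imaging. Cells were ACHN renal carcinoma, treated 4 h with compound at 7–5,000 nM or 0.3–200 nM.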

[2] = target: T2, Myt1 kinase (recombinant PMYT-1) (Homo sapiens, UniProt Q99640); experiment: Myt1 kinase binding assay (LanthaScreen Eu Kinase Binding Assay); details: 3 nM tracer 178, 2.5 nM PMYT-1, 1 nM Eu-labeled antibody; read-out: Myt1 kinase Binding IC50
T2 construct: full length PMYT-1 was expressed by baculovirus in insect cells; purchased Invitrogen A30984; host or cells: insect cells (baculovirus)
T2 sequence (Q99640 1-499): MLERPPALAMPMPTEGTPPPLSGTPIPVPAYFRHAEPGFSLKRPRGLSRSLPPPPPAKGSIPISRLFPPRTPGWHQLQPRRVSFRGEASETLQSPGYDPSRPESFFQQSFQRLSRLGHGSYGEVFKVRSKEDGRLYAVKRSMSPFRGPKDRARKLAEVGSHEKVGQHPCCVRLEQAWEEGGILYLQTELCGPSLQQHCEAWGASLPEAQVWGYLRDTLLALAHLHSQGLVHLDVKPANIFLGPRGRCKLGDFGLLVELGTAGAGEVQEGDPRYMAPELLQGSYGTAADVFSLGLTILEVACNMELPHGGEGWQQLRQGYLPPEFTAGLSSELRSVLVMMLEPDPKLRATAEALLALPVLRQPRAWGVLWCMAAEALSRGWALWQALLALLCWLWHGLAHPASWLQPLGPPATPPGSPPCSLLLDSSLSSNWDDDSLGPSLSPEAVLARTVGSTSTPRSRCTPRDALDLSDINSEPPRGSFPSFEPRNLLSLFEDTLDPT
How it was run: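 Compound binding to Myt1 kinase was assessed using the LanthaScreen Eu Kinase Binding Assay. This europium-based binding format was applied to quantify how strongly each compound bound to the Myt1 enzyme, and the binding affinity was reported for each compound as an IC50 value.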

[3] = target: T3, Myt1 kinase (CDK1 Thr14 phosphorylation in ACHN renal cell carcinoma cells) (Homo sapiens, UniProt Q99640); experiment: AlphaLISA assay, Myt1 kinase target engagement (phospho-CDK1 Thr14) in ACHN cells; assay type: cell-based; details: ACHN cells (marked *); 4 h treatment
T3 construct: pCDK1 Thr14 AlphaLISA read-out
T3 sequence (Q99640 1-499): T2 sequence (Q99640 1-499)
Procedure: Each of an ACHN renal cell carcinoma cell line (ATCC) and a DAOY medulloblastoma cell line, and an A427 lung cancer line were cultured in Minimum Essential Medium Eagle supplemented with 10% fetal calf serum (Sigma), 1% Penicillin-Streptomycin and 10 mM HEPES buffer (HyClone). Cell cultures were kept in a humidified incubator at 37 °C and 5% CO2. Cells were routinely tested for Mycoplasma contamination.
For target engagement assessment of Myt1 kinase inhibition, quantification of Cdk1 phosphorylated on threonine 14 was detected using the AlphaLISA® SureFire® Ultra™ Human Phospho-CDK1 (Thr14) assay (Perkin Elmer). DAOY or ACHN cells were seeded into tissue culture treated 96-well plates (VWR) to a density of 10,000 or 20,000 cells per well respectively. 24 h post seeding cells were treated for 4 h with compounds at concentrations ranging from 7 to 5000 nM. Cells were washed with PBS and lysed in 50 μl AlphaLISA lysis buffer before freezing at −80 C. Ten ul of the lysate was transferred to 384 well plates and incubated with AlphaLISA donor and acceptor beads according to the manufacturer's instructions. Dose response curves and EC50 values were calculated and visualized using GraphPad Prism version 9. Target engagement for Myt1 kinase can also be measured using the same AlphaLISA assay in OVCAR3 cells, an ovarian cancer cell line. NIH:OVCAR-3 (OVCAR3) cells are cultured in RPMI-1640 medium supplemented with 0.01 mg/ml insulin, 20% FBS, 1% Penicillin-Streptomycin and 10 mM HEPES buffer. 14,000 cells per well are seeded into 96 well tissue culture plates in full medium. Twenty-four hours post seeding, cells are treated with compound for 4 hours at concentrations ranging from 0.017 nM to 1000 nM.

ACHN cells = experiment: Cell Titer Glo viability assay, ACHN cells; assay type: cell-based; details: Homo sapiens, 144 h, absolute EC50
How it was run: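 Cells grown in MEM with 10% FCS were seeded at 500 (A427), 400 (ACHN) or 250 (DAOY) per well and treated the next day with compound at 17 to 10 000 nM. Viability relative to untreated control was read at 144 h by CellTiter-Glo 2.0.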

[4] = target: T4, recombinant human Wee1A kinase (Homo sapiens, UniProt P30291); experiment: Wee1A kinase binding assay (LanthaScreen Eu time-resolved FRET); details: 30 nM tracer 178, 5 nM Wee1A kinase, 2 nM Eu-labeled antibody; 60 minutes at room temperature; read-out: Wee1A kinase Binding IC50
T4 construct: full length Wee1 kinase was expressed by baculovirus in insect cells; purchased Invitrogen PV3817; host or cells: insect cells (baculovirus)
T4 sequence (P30291 whole entry): as the sequence (P30291 whole entry) above
How it was run: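 Full-length, baculovirus-expressed GST-tagged Wee1A (5 nM) was mixed with 2 nM Eu-anti-GST antibody, 30 nM kinase tracer 178 and compound (1% DMSO). Buffer was 50 mM HEPES pH 7.5, 10 mM MgCl2, 1 mM EGTA, 0.01% Brij-35, incubated 60 min at room temperature. TR-FRET 665/615 nm emission ratios from duplicates were curve-fitted.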

[5] = target: T5, Myt1 kinase (CDK1 Thr14 phosphorylation in DAOY medulloblastoma cells) (Homo sapiens, UniProt Q99640); experiment: AlphaLISA assay, Myt1 kinase target engagement (phospho-CDK1 Thr14) in DAOY cells; assay type: cell-based; details: 4 h treatment, read-out: CDK1 Thr14 Phosphorylation EC50
T5 construct: pCDK1 Thr14 AlphaLISA read-out
T5 sequence (Q99640 1-499): T2 sequence (Q99640 1-499)
How it was run: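 Cells seeded at 10,000 (DAOY) or 20,000 (ACHN) per well, treated 24 h later for 4 h with compound at 7–5000 nM. Lysates analysed by AlphaLISA SureFire Ultra phospho-CDK1 (Thr14) with donor/acceptor beads; EC50 from dose-response curves.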

In the case of `C=CCn1c(=O)c2cnc(Nc3ccc4c(cnn4C)c3)nc2n1-c1cccc(OC2CCCN(C)CC2)n1` (single isomer, unassigned) [Compound 373], the EC50 [1] is reported as under 100 nM, the IC50 [2] is reported as under 20 nM and the EC50 [3] is reported as 200 to 500 nM. The EC50 (ACHN cells) was at most 100 nM and the IC50 [4] was under 10 nM.

With `C=CCn1c(=O)c2cnc(Nc3ccc4c(cnn4C)c3)nc2n1-c1cccc(OC2CCCN(C)CC2)n1` (single isomer, unassigned) [Compound 374] the EC50 [1] was under 100 nM, the IC50 [2] was 20 to 100 nM and the EC50 [3] was 500 to 1000 nM. For the same compound, the IC50 [4] was under 10 nM.

In the case of `C=CCn1c(=O)c2cnc(Nc3ccc4c(c3)ncn4C)nc2n1-c1cccc(OC2CCNCC2)n1` [Compound 319, 2-allyl-6-((1-methyl-1H-benzo[d]imidazol-5-yl)amino)-1-(6-(piperidin-4-yloxy)pyridin-2-yl)-1,2-dihydro-3H-pyrazolo[3,4-d]pyrimidin-3-one], the EC50 [1] is reported as 100 to 500 nM, the IC50 [2] is reported as 20 to 100 nM and the EC50 (ACHN cells) is reported as 500 to 1000 nM. The IC50 [4] was under 10 nM and the EC50 [5] was over 1000 nM.

In the case of `C=CCn1c(=O)c2cnc(Nc3ccc4c(cnn4C)c3)nc2n1-c1cccc(OC2CCN(CC)CC2)n1` [Compound 321, 2-allyl-1-[6-(1-ethyl-4-piperidyloxy)-2-pyridyl]-6-(1-methyl-1H-indazol-5-ylamino)-1,2-dihydro-3H-1,2,5,7-tetraazainden-3-one], the EC50 [1] is reported as under 100 nM, the IC50 [2] is reported as 20 to 100 nM and the EC50 (ACHN cells) is reported as at most 100 nM. It also gave an IC50 [4] of under 10 nM and an EC50 [5] of 500 to 1000 nM.

Work on `C=CCn1c(=O)c2cnc(Nc3ccc4ccncc4c3)nc2n1-c1cccc(OC2CCN(C)CC2)n1` [Compound 326, 2-allyl-6-(7-isoquinolylamino)-1-[6-(1-methyl-4-piperidyloxy)-2-pyridyl]-1,2-dihydro-3H-1,2,5,7-tetraazainden-3-one] yielded an EC50 [1] of under 100 nM, an IC50 [2] of 20 to 100 nM and an EC50 [3] of 200 to 500 nM. It also gave an IC50 [4] of under 10 nM.

`[2H]C([2H])([2H])N1CCC(Oc2cccc(-n3c4nc(Nc5ccc6c(cnn6C(C)C)c5)ncc4c(=O)n3CC=C)n2)CC1` [Compound 354, 2-allyl-6-(1-isopropyl-1H-indazol-5-ylamino)-1-(6-{1-[(^2H3)methyl]-4-piperidyloxy}-2-pyridyl)-1,2-dihydro-3H-1,2,5,7-tetraazainden-3-one] was tested, and the EC50 [1] was under 100 nM, the IC50 [2] was under 20 nM and the EC50 [3] was under 200 nM. For the same compound, the EC50 (ACHN cells) was at most 100 nM.

In the case of `C=CCn1c(=O)c2cnc(Nc3ccc4[nH]nc(C)c4c3)nc2n1-c1cccc(OC2CCN(C)CC2)n1` [Compound 355, 2-allyl-6-((3-methyl-1H-indazol-5-yl)amino)-1-(6-((1-methylpiperidin-4-yl)oxy)pyridin-2-yl)-1,2-dihydro-3H-pyrazolo[3,4-d]pyrimidin-3-one], the EC50 [1] is reported as under 100 nM, the IC50 [2] is reported as under 20 nM and the EC50 [3] is reported as 200 to 500 nM. For the same compound, the IC50 [4] was under 10 nM.

Compound `C=CCn1c(=O)c2cnc(Nc3ccc4c(cnn4C)c3)nc2n1-c1cccc(OC2CCCN(C)CC2)n1` (centres unmarked) [Compound 361] has an EC50 [1] of under 100 nM, an EC50 [3] of 200 to 500 nM and an EC50 (ACHN cells) of at most 100 nM. For the same compound, the IC50 [4] was under 10 nM.

Compound `C=CCn1c(=O)c2cnc(Nc3ccc(Br)cc3)nc2n1-c1cccc(OC2CCN(C)CC2)n1` [Compound 370, 2-allyl-6-(p-bromophenylamino)-1-[6-(1-methyl-4-piperidyloxy)-2-pyridyl]-1,2-dihydro-3H-1,2,5,7-tetraazainden-3-one] has an EC50 [1] of under 100 nM, an IC50 [2] of under 20 nM and an EC50 [3] of 200 to 500 nM. The IC50 [4] was under 10 nM.

`[2H]C([2H])([2H])N1CCC(Oc2nccc(-n3c4nc(Nc5ccc6c(cnn6C)c5)ncc4c(=O)n3CC=C)n2)CC1` [Compound 383, 2-allyl-6-(1-methyl-1H-indazol-5-ylamino)-1-(2-{1-[(^2H3)methyl]-4-piperidyloxy}-4-pyrimidinyl)-1,2-dihydro-3H-1,2,5,7-tetraazainden-3-one] was tested, and the IC50 [2] was 20 to 100 nM, the EC50 [3] was 500 to 1000 nM and the IC50 [4] was under 10 nM.

For `C=CCn1c(=O)c2cnc(Nc3ccc4cnn(C)c4c3)nc2n1-c1cccc(OC2CCN(C)CC2)n1` [Compound 389, 2-allyl-6-((1-methyl-1H-indazol-6-yl)amino)-1-(6-((1-methylpiperidin-4-yl)oxy)pyridin-2-yl)-1,2-dihydro-3H-pyrazolo[3,4-d]pyrimidin-3-one], the EC50 [1] was under 100 nM, the IC50 [2] was 20 to 100 nM and the EC50 [3] was under 200 nM. For the same compound, the IC50 [4] was under 10 nM.

Work on `C=CCn1c(=O)c2cnc(Nc3ccc4nn(C(C)(C)C)cc4c3)nc2n1-c1cccc(OC2CCNCC2)n1` [Compound 395, 2-allyl-6-((2-(tert-butyl)-2H-indazol-5-yl)amino)-1-(6-(piperidin-4-yloxy)pyridin-2-yl)-1,2-dihydro-3H-pyrazolo[3,4-d]pyrimidin-3-one] yielded an EC50 [1] of under 100 nM, an IC50 [2] of under 20 nM and an EC50 [3] of over 1000 nM. For the same compound, the IC50 [4] was under 10 nM.

`C=CCn1c(=O)c2cnc(Nc3ccc(OCCF)nc3)nc2n1-c1cccc(OC2CCN(C)CC2)n1` [Compound 399, 2-allyl-6-((6-(2-fluoroethoxy)pyridin-3-yl)amino)-1-(6-((1-methylpiperidin-4-yl)oxy)pyridin-2-yl)-1,2-dihydro-3H-pyrazolo[3,4-d]pyrimidin-3-one] was tested, and the EC50 [1] was under 100 nM, the IC50 [2] was under 20 nM and the EC50 [3] was under 200 nM. It also gave an IC50 [4] of under 10 nM.

With `C=CCn1c(=O)c2cnc(Nc3ccc4c(cnn4C(C)C)c3)nc2n1-c1ccnc(OC2CCN(C)CC2)n1` [Compound 401, 2-allyl-6-((1-isopropyl-1H-indazol-5-yl)amino)-1-(2-((1-methylpiperidin-4-yl)oxy)pyrimidin-4-yl)-1,2-dihydro-3H-pyrazolo[3,4-d]pyrimidin-3-one] the EC50 [1] was under 100 nM, the IC50 [2] was under 20 nM and the EC50 [3] was under 200 nM. It also gave an IC50 [4] of under 10 nM.

Compound `C=CCn1c(=O)c2cnc(Nc3cnc4c(cnn4C(C)C)c3)nc2n1-c1cccc(OC2CCN(C)CC2)n1` [Compound 406, 2-allyl-6-((1-isopropyl-1H-pyrazolo[3,4-b]pyridin-5-yl)amino)-1-(6-((1-methylpiperidin-4-yl)oxy)pyridin-2-yl)-1,2-dihydro-3H-pyrazolo[3,4-d]pyrimidin-3-one] has an EC50 [1] of under 100 nM, an IC50 [2] of under 20 nM and an EC50 [3] of under 200 nM. The IC50 [4] was under 10 nM.
